From patent publication US9606124B2, “Methods of detecting and treating stem-cell containing solid tumors” (The Regents of The University of Michigan, priority 2008, dated 2017)
Entries after “also recorded” stand apart in the source; their conditions may differ. Where two headings read alike, the source gives them in different places.

Tests used:
[1] = tested on: FOXO3A; assay: Immunohistochemistry of FOXO3A in xenotransplants; parameters: species or system NOD/SCID mice; details: mouse, in vivo
Protocol: (§1) Immunostaining. For immunofluorescent staining, sorted CXCR1-positive cells were fixed with 95% methanol at −20° C. for 10 minutes. Cells were rehydrated in PBS and incubated with respective antibodies at room temperature for 1 hour. Primary antibodies used were P-FAK (1:50, Cell Signaling Technology), P-AKT (1:300, Cell Signaling Technology), and FOXO3a (1:250, Cell Signaling Technology). Slides were then washed and incubated 30 minutes with PE conjugated secondary antibodies (Jackson labs). The nuclei were counterstained with DAPI/antifade (Invitrogen) and coverslipped. […] Immunohistochemistry for the detection of ALDH1 (1:100, BD biosciences), P-FAK, P-AKT, FOXO3a expression was done on paraffin section (Ginestier et al. Am. J Pathol. 161:1223-1233, herein incorporated by reference in its entirety). Staining was done utilizing the Histostainplus kit (Zymed laboratories). Diaminobenzidine (DAB) or 3-amino-9-ethylcarbazole (AEC) was used as chromogen and sections were counterstained with hematoxylin.

[2] = tested on: normal mammary epithelial cells; assay: Mammosphere formation by normal mammary epithelial cells; type: cell-based, human; details: repertaxin 100 nM for four to fifteen days adherent, then suspension
[3] = tested on: SUM159 cell line and human breast cancer xenografts MC1, UM2, UM3; assay: Tumor growth of breast cancer xenografts in the mammary fat pad; type: in vivo, NOD/SCID mice; details: repertaxin 15 mg/Kg s.c. twice a day 28 days, docetaxel 10 mg/Kg i.p. once a week, start at tumor size about 4 mm
Protocol: For each sample, 50,000 cells were injected into the mammary fat pad of NOD-SCID mice which were monitored for tumor size. Injections were started when the tumor size was about 4 mm.
Animal model. […] Cells from these tumors were transplanted orthotopically in the humanized cleared fat-pad of NOD/SCID mice, without cultivation in vitro. […] 50,000 cells from each xenotransplants were injected in the humanized fat pad of NOD/SCID mice and monitored the tumor growth. […] The animals were euthanized when the tumors were approximately 1.5 cm in the largest diameter, to avoid tumor necrosis and in compliance with regulations for use of vertebrate animal in research. A portion of each fat pad injected was fixed in formalin and embedded in paraffin for histological analysis. The rest of the tumor cells were re-implantated into secondary NOD/SCID mice. Serial dilutions of cells were utilized for the re-implantation with injection of 10,000, 1,000, and 100 cells for each treated tumor.

[4] = phase I and phase II clinical trials, cited from earlier work
[5] = tested on: SUM159 cells; assay: TUNEL assay, apoptotic cells; type: cell-based, human; details: 4 days of treatment
Excerpt: (§2) Cell viability. […] After one day, treatment with repertaxin was started. […]. […] Nuclei were counterstained with DAPI/antifade (Invitrogen).

[6] = tested on: phospho-FAK and phospho-AKT; assay: Immunofluorescence staining of p-FAK and p-AKT in SUM159 cells; type: cell-based, human; details: for phospho-FAK and phospho-AKT expression (immunofluorescence): sorted CXCR1-positive cells
Protocol: The non-treated SUM159 cells presented 80% of cells positive in the cytoplasm for FOXOA3. […] The change in FOXOA3 cellular localation from the cytoplasm to the nucleus indicates an activation of FOXOA3 protein.
as §1

[7] = tested on: CXCR1-positive, CXCR1-negative and unsorted populations of SUM159 cells; assay: MTT assay on flow sorted CXCR1-positive, CXCR1-negative and unsorted populations; type: cell-based, human; details: for cell viability of the unsorted / unseparated population: SUM159 cells
Protocol: Cell viability. […] Nuclei were counterstained with DAPI/antifade (Invitrogen).
Flow cytometry analysis. […] CD95/FAS staining were performed utilizing an anti-CD95 labeled APC (1:20, BD biosciences). […] Fresh cells were stained with 1 μg/ml PI (Sigma) for 5 min for viability.

[8] = tested on: MDA-MB-453 cells; assay: MTT assay, cell viability of MDA-MB-453 cells; type: cell-based, human; details: MDA-MB-453 (PTEN mutation), repertaxin 100 nM
Excerpt: as §2

[9] = tested on: ALDEFLUOR-positive population of SUM159 cell line; assay: ALDEFLUOR assay on SUM159 cells in vitro (cancer stem cell population); type: cell-based, human
Protocol: ALDEFLUOR Assay and Separation of the ALDH-positive Population by FACS. ALDH activity was assessed in 33 BCLs representing the main molecular subtypes of human breast cancer. The ALDEFLUOR kit (StemCell technologies, Durham, N.C., USA) was used to isolate the population with high ALDH enzymatic activity (17). Cells obtained from subconfluent cell lines after trypsinization or from freshly dissociated xenografts were suspended in ALDEFLUOR assay buffer containing ALDH substrate (BAAA, 1 μmol/l per 1×10^6 cells) and incubated for 40 minutes at 37° C. In each experiment a sample of cells was stained under identical conditions with 50 mmol/L of diethylaminobenzaldehyde (DEAB), a specific ALDH inhibitor, as negative control. Flow cytometry sorting was conducted using a FACStarPLUS (Becton Dickinson). ALDEFLUOR fluorescence was excited at 488 nm and detected using standard fluorescein isothiocyanate (FITC) 530/30 band pass filter. For xenotransplanted tumors, incubation with an anti-H2Kd antibody (BD biosciences, 1/200, 20 min on ice) followed by a secondary antibody labeled with phycoerythrin (Jackson labs, 1/250, 20 min on ice) was used to eliminate cells of mouse origin. The sorting gates were established using PI stained cells for viability, ALDEFLUOR-stained cells treated with DEAB, and those stained with secondary antibody alone. Prior to RNA profiling or NOD/SCID mice injection, the purity of sorted populations was checked using double sorting of 10,000 ALDEFLUOR-positive and negative cells in BrCa-MZ-01 and SUM159 cell lines.
ALDEFLUOR assay. […] In order to eliminate cells of mouse origin from the xenotransplanted tumors, cell population was stained with an anti-H2Kd antibody (BD biosciences, 1/200, 20 min on ice) followed by staining with a secondary antibody labeled with phycoerythrin (PE) (Jackson labs, 1/250, 20 min on ice).

[10] = tested on: FAK Tyr397 and AKT Ser473 phosphorylation; assay: Western blotting of FAK/AKT activation in HCC1954; type: cell-based, human; details: 100 nM, two days
Protocol: Western blotting. Cells were lysed in a laemmli buffer and loaded onto SDS-polyacrylamide gels. Blots were incubated with the respective primary antibodies diluted in TBST (containing 0.1% Tween20 and 2% BSA) either overnight at 4o, or 2 hours at room temperature. Blots were washed and incubated with appropriate secondary antibodies (GE Healthcare, UK) and detected using SuperSignal West Pico Chemiluminescent Substrate (Pierce).

CC(C)Cc1ccc([C@@H](C)C(=O)NS(C)(=O)=O)cc1 [Repertaxin]
nuclear FOXO3A in treated tumors [1]: detected | mammosphere formation by normal mammary epithelial cells [2]: significantly decreased mammosphere formation; also recorded: significant decrease of mammosphere-initiating cells | tumor size / tumor growth compared to the control [3]: moderate impact on tumor growth | tumor size / tumor growth compared to the control ([3]; listed as Reperataxin): no significant difference | tumor size / tumor growth compared to the control ([3]; listed as repertaxin): no difference | toxicity in clinical studies [4]: lack of toxicity | toxicity in clinical studies ([4]; listed as Repartaxin): little toxicity | apoptotic cells (TUNEL) [5]: 36% | p-FAK and p-AKT (immunofluorescence) ([6]; SUM159, 100 nM, 2 days): complete inactivation | phospho-FAK and phospho-AKT expression (immunofluorescence) [6]: disappearance of phospho-FAK | phospho-FAK and phospho-AKT expression (immunofluorescence) ([6]; listed as repertaxin): dramatic decrease of phospho-FAK and phospho-AKT expression | cell viability of the unsorted / unseparated population [7]: massive cell death | cell viability of the unsorted / unseparated population ([7]; listed as repertaxin): decrease in cell viability | cell viability of the CXCR1-negative population ([7]; sorted SUM159 cells): no effect | cell viability of the CXCR1-positive population ([7]; sorted SUM159 cells): decreased cell viability | cell viability of the CXCR1-positive population ([7]; sorted SUM159 cells, listed as repertaxin): decrease in cell viability | cell viability (MTT) [8]: no effect; also recorded: did not have any effect on cell viability | cell viability (MTT) ([8]; listed as repertaxin): did not effect the viability | percent of ALDEFLUOR-positive cells ([9]; SUM159, repertaxin, repertaxin plus anti-FAS-ligand, FAS agonist): massive decrease | proportion of ALDEFLUOR-positive cells ([9]; SUM159, three days, repertaxin 100 nM, antibodies 10 μg/ml): five-fold reduction; also recorded: significant reduction | decrease of the ALDEFLUOR-positive population ([9]; SUM159 adherent, 4 days of treatment): 80% | FAK Tyr397 and AKT Ser473 phosphorylation (western blot) [10]: decrease in FAK Tyr397 and AKT Ser473 phosphorylation | FAK Tyr397 and AKT Ser473 phosphorylation (western blot) ([10]; listed as repertaxin): decrease in FAK Tyr^397 and AKT Ser^473 phosphorylation
